Where “and” joins values, the source holds several entries; their conditions need not be identical. Equal values may be shown once. Where a name gives a salt, the structure may show the parent alone.
System: K-562 cells
Test: Cell lysis efficiency and cDNA yield in bulk (lysis and RT in one mix, PCR, BioAnalyzer/Qubit)
Assay type: cell-based
Conditions: cDNA yield divided by cDNA yield with 0.1% NP40 of the same Part
Procedure: The cells, lysis reagents and reverse transcription reagents are mixed together to create one reaction mix. The mRNA released from the lysed cells is reverse transcribed using oligonucleotides into a copy DNA (cDNA). The resulting cDNA is then purified using AMPure purification kit, PCR-amplified and analysed by capillary electrophoresis (BioAnalyzer). The DNA amount is also evaluated by fluorometer (Qubit) and the cDNA yields between different lysis conditions is compared to the reference (0.1% NP40).
The detailed composition and reaction conditions are provided below. Briefly, cell lysis and RT reaction were carried out in bulk with MCF7 and K562 cells. Samples containing 0.02%-0.6% of different cell lysis reagent were evaluated. After the RT reaction, cDNA was pass through a column to remove cell debris and gDNA, purified with 1.2× AMPure, eluted in 20 μl water, amplified by 12-cycles of PCR, purified reaction product with 1.2× AMPure and analyzed on BioAnalyzer chip.
Different sets of detergents were prepared in DEPC-water. Each set was tested separately. The cDNA yield for each detergent was compared to the cDNA yield obtained with 0.1% NP40 final concentration.
4. Setting Up RT Reaction: • 1. […] The final volume of reaction was 40 uL. • 4. RT reaction was carried out at 50° C. for 60 min followed by inactivation at 85° C. for 5 min. • 5. After RT reaction samples were immediately processed further by passing them through Zymo column for 1 min at 10000 g. • 6. The flow through fraction was cleaned up with 1.2× AMPure beads and eluted in 20 μL of water and processed further.
5. cDNA Amplification: • 7. cDNA amplification mix was prepared as follows:
• 8. 12 μL of cDNA amplification mix were mixed with 8 μL of purified cDNA material resulting in a total of 20 μL solution. • 9. Each sample was transferred to thermocycler and PCR program was started:
• 10. Amplified cDNA was cleaned up with 1.2× AMPure beads and eluted to 20 μL of water. • 11. DNA concentration of each sample was measured with Qubit. Samples were frozen only after cDNA amplification if needed). • 12. Calculate the dilution factor needed to reach 1 ng/uL for 0.1% NP40 sample, which is used as a reference. • 13. Load 1 μL of each sample (diluted as much times as 0.1% NP40 sample) on BioAnalyzer (BioA) HS DNA kit/chip and calculate the cDNA yield (ng/μl).
The “Relative lysis efficiency” was estimated by first quantifying the cDNA yield (ng/μl) obtained at a given lysis condition and then dividing the said cDNA yield by the cDNA yield obtained when using 0.1% NP40.

C[C@H](CCC(=O)O)[C@H]1CC[C@H]2[C@@H]3CC[C@@H]4C[C@H](O)CC[C@]4(C)[C@H]3C[C@H](O)[C@]12C [Deoxycholic acid Na salt]
Relative lysis efficiency (single detergent at 0.02%): 0.51 | Relative lysis efficiency (single detergent at 0.1%): 0.24

Tween 20
Relative lysis efficiency (single detergent at 0.1%): 0.98 and 0.99 | Relative lysis efficiency (single detergent at 0.2%): 0.99 | Relative lysis efficiency (single detergent at 0.3%): 0.99 | Relative lysis efficiency (single detergent at 0.4%): 0.99 | Relative lysis efficiency (single detergent at 0.6%): 1.02

(1-dodecyl) trimethylamonium bromide
Relative lysis efficiency (single detergent at 0.02%): 0.88 | Relative lysis efficiency (single detergent at 0.1%): 0.25

C[C@H](CCC(=O)NCCC[N+](C)(C)CCCS(=O)(=O)[O-])[C@H]1CC[C@H]2[C@@H]3[C@H](O)C[C@@H]4C[C@H](O)CC[C@]4(C)[C@H]3C[C@H](O)[C@]12C [CHAPS]
Relative lysis efficiency (single detergent at 0.02%): 0.43 | Relative lysis efficiency (single detergent at 0.1%): 0.43

Tergitol NP40
Relative lysis efficiency (single detergent at 0.1%): 0.63

Triton X-100
Relative lysis efficiency (single detergent at 0.1%): 0.78

CCCCCCCCS[C@@H]1O[C@H](CO)[C@@H](O)[C@H](O)[C@H]1O [n-octyl-β-D-thioglucopyranoside (OTG), n-octyl-β-D-thioglucopyranoside]
Relative lysis efficiency (single detergent at 0.02%): 0.37 | Relative lysis efficiency (single detergent at 0.1%): 0.31

Tween 60
Relative lysis efficiency (single detergent at 0.1%): 0.65

CCCCCCCCCCCCN(C)CC(=O)O [N-Laurylsarcosine]
Relative lysis efficiency (single detergent at 0.02%): 0.41 | Relative lysis efficiency (single detergent at 0.1%): 0.35

Tween 80
Relative lysis efficiency (single detergent at 0.1%): 0.50 and 0.73 | Relative lysis efficiency (single detergent at 0.2%): 0.69 | Relative lysis efficiency (single detergent at 0.3%): 0.72 | Relative lysis efficiency (single detergent at 0.4%): 0.71 | Relative lysis efficiency (single detergent at 0.6%): 0.70

CCCCCCCCCc1ccc(OCCOCCOCCOCCOCCOCCOCCOCCOCCO)cc1 [Igepal CO630]
Relative lysis efficiency (single detergent at 0.1%): 0.98

C[C@@H]1CC[C@@]2(OC1)O[C@H]1[C@@H](O)[C@H]3[C@@H]4CC[C@H]5C[C@@H](O[C@@H]6O[C@H](CO)[C@H](O[C@@H]7O[C@H](CO)[C@@H](O)[C@H](O[C@@H]8OC[C@@H](O)[C@H](O)[C@H]8O)[C@H]7O[C@@H]7O[C@H](CO)[C@H](O)[C@H](O[C@@H]8O[C@H](CO)[C@@H](O)[C@H](O)[C@H]8O)[C@H]7O)[C@H](O)[C@H]6O)[C@H](O)C[C@]5(C)[C@H]4CC[C@]3(C)[C@H]1[C@@H]2C [Digitonin]
Relative lysis efficiency (single detergent at 0.02%): 0.85 | Relative lysis efficiency (single detergent at 0.1%): 0.85

CCCCCCCCO[C@@H]1O[C@H](CO)[C@@H](O)[C@H](O)[C@H]1O [n-octyl-β-D-glucopyranoside (OBG), n-octyl-β-D-glucopyranoside]
Relative lysis efficiency (single detergent at 0.02%): 0.36 | Relative lysis efficiency (single detergent at 0.1%): 0.36

NP40
Relative lysis efficiency (single detergent at 0.1%): 1.00 | Relative lysis efficiency (single detergent at 0.2%): 1.01 | Relative lysis efficiency (single detergent at 0.4%): 0.98 | Relative lysis efficiency (single detergent at 0.6%): 1.18
